Reference: patent US12667604B2, “Combination therapy with controlled-release CNP agonists” (ASCENDIS PHARMA GROWTH DISORDERS A/S, priority 2016, dated 2026)

Key:
[1] = tested on: Fgfr3Y367C/+ mice; assay: Achondroplasia phenotype in Fgfr3Y367C/+ mice (whole body autoradiography, bone lengths); assay type: in vivo; conditions: dosing from day 1 of birth for 15 days; single agent or combination
Protocol: Animals are sacrificed on day 16 and tissues fixed for histologic or immunohistochemical analysis. Either compound is administered alone or in combination. The dose levels employed for Rosuvastatin are 0.25, 0.5, 1.0 and 2.0 mg/kg. […] The ratios ranges from 1:1-24:1
Reversion of phenotypical features are assessed using whole body autoradiography. The animals are placed on their right side, with the left hind leg more forward than the right, to allow both hind legs to be visible on the X-ray. Bones obtained at necropsy include femur, tibia, humerus, ulna, lumbar vertebra segment L 4-6 and are measured with a caliper.

[2] = tested on: hypophysectomized (HYPOX) SPF Sprague Dawley rats; assay: Body weight gain in hypophysectomized rats; assay type: in vivo, rat
Protocol: (§1) Method: This study was performed in order to test and compare the effect of Lys26 CNP-38 PEG4×10 kDa conjugate, Somatropin and combinations of the two compounds in an animal model relevant for investigating treatment of growth deficiency. The Somatropin (human growth hormone, hGH) was a United States Pharmacopeia (USP) Reference Standard and was prepared according to supplier instructions. Lys26 CNP-38 PEG4×10 kDa conjugate and Somatropin were administered alone or in combination via subcutaneous injection to hypophysectomized (HYPOX) SPF Sprague Dawley rats for a total of 29 days. The animals were dosed daily with Somatropin or vehicle, and weekly with Lys26 CNP-38 PEG4×10 kDa conjugate (at two different sites in animals receiving both test items on days 1, 8, 15, 22, and 29). The dose levels employed for Lys26 CNP-38 PEG4×10 kDa conjugate were 0.3, 1.0, and 2.0 mg/kg. Somatropin was employed at […] with a concentration of 10 μg/mL (˜8-10 μg/kg with animal weights between 100-120 g during the study period). The animals were weighed predose and once daily during the dosing period. […] Animals were sacrificed on day 30, and femur and tibia were trimmed and their length measured using a caliper. Hereafter, right tibia was fixed and processed for histologic and histomorphometric analysis.

[3] = tested on: hypophysectomized (HYPOX) SPF Sprague Dawley rats; assay: Femur and tibia length measured with a caliper in hypophysectomized rats; assay type: in vivo, rat; conditions: Somatropin alone, daily s.c.; relative to the vehicle group; day 30
Protocol: as §1

[4] = tested on: hypophysectomized (HYPOX) SPF Sprague Dawley rats; assay: Histologic evaluation of HE stained right tibia, width of the endochondral/ossification zone; assay type: in vivo, rat
Protocol: as §1

[5] = tested on: hypophysectomized (HYPOX) SPF Sprague Dawley rats; assay: Histomorphometric measurement of proliferative zone width of right tibia growth plate; assay type: in vivo, rat; conditions: Somatropin alone versus control (vehicle)
Protocol: as §1

Molecule: CC(C)c1nc(N(C)S(C)(=O)=O)nc(-c2ccc(F)cc2)c1/C=C/[C@@H](O)C[C@@H](O)CC(=O)O [Rosuvastatin]
- reversal of the achondroplasic phenotype [1]: beneficial effect on reversal of the achondroplasic phenotype is observed

Molecule: Somatropin: human growth hormone, hGH; United States Pharmacopeia (USP) Reference Standard
- Average BWG (g) (±SE) ([2]; body weight gain day 0 (predose) to day 28, Somatropin alone, daily s.c. 10 μL/animal of 10 μg/mL (~8-10 μg/kg)): 4.44 (±0.94) g
- body weight gain ([2]; compared to vehicle treated group): Significant body weight gains
- increase in femur length [3]: −0.04±0.08 mm
- increase in tibia length [3]: 0.55±0.17 mm
- Number of animals, width of endochondral/ossification zone Normal (grade 0) ([4]; Somatropin alone): 9
- width of the endochondral/ossification zone, histologic evaluation ([4]; compared to vehicle or to conjugate alone): did not differ from background (vehicle)
- width of the proliferative zone [5]: not different from control (vehicle) animals
